Data reported in PubChem BioAssay (NCI).
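Exposure lasted 48 hours, with cells grown in 96-well plates and compounds tested at five concentrations. GI50 marks 50% less growth. TGI: concentration producing complete growth inhibition.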

Experiments:
Experiment in all cases: NCI tumour cell line growth inhibition, 48 h
EKVX NSCLC = system: EKVX NSCLC
UACC-62 melanoma = system: UACC-62 melanoma
SW-620 colon = system: SW-620 colon
COLO 205 colon = system: COLO 205 colon
IGROV1 ovarian = system: IGROV1 ovarian
ACHN renal = system: ACHN renal
HCT-15 colon = system: HCT-15 colon
NCI-H23 lung = system: NCI-H23 lung
NCI-H522 lung = system: NCI-H522 lung
RXF 393 renal = system: RXF 393 renal

Structure (SMILES) | GI50 (EKVX NSCLC) [µM] | TGI (EKVX NSCLC) [µM] | GI50 (UACC-62 melanoma) [µM] | TGI (UACC-62 melanoma) [µM] | GI50 (SW-620 colon) [µM] | TGI (SW-620 colon) [µM] | GI50 (COLO 205 colon) [µM] | TGI (COLO 205 colon) [µM] | GI50 (IGROV1 ovarian) [µM] | TGI (IGROV1 ovarian) [µM] | GI50 (ACHN renal) [µM] | TGI (ACHN renal) [µM] | GI50 (HCT-15 colon) [µM] | TGI (HCT-15 colon) [µM] | GI50 (NCI-H23 lung) [µM] | TGI (NCI-H23 lung) [µM] | TGI (NCI-H522 lung) [µM] | GI50 (NCI-H522 lung) [µM] | GI50 (RXF 393 renal) [µM] | TGI (RXF 393 renal) [µM]
C[n+]1c2ccccc2nc2c(N)cc(N)cc21 | 8.04 | > 100 | 12.9 | 31.7 | 10.7 | > 100 | 3.49 | 19.4 | 14.4 | 57 | 45.6 | > 100 | 57.6 | > 100 | 5.13 | 26.6 | – | – | – | –
CN=C1OC2(c3ccccc3)C3=C(OC(=NC)N2C)C(=O)OC3(c2ccccc2)N1C (centres undefined) | – | > 100 | – | > 100 | – | > 100 | – | > 100 | – | > 100 | – | > 100 | – | > 100 | – | > 100 | > 100 | – | – | –
O=C(/C=C/c1ccc(Cl)c(Cl)c1)c1cccc2ccccc12 | – | 32.5 | – | 25.5 | – | 3.08 | – | 26.2 | – | 24.8 | – | 30 | – | 7.12 | – | 22.5 | 10 | – | – | –
CC(C)C[C@H](NC(=O)CCn1ccc2ccccc2c1=O)B(O)O | – | – | 4.29 | 24.9 | 3 | 12 | 5.06 | > 100 | 12.3 | > 100 | 1.75 | > 100 | 9.57 | > 100 | 25.4 | > 100 | 8.09 | 2.6 | – | –
N#CCCNc1nonc1-c1nc2ccccc2n1CC(=O)c1ccc(NC(=O)[C@@H](N)CCCCN)cc1 | – | – | 0.0213 | > 100 | 0.0443 | > 100 | 0.0273 | 0.0709 | 0.11 | > 100 | 0.0583 | > 100 | 0.0356 | > 100 | 0.0483 | – | > 100 | 0.0363 | 0.0353 | > 100
NC1=NC(=O)C(CC(=O)Nc2ccc(Cl)cc2Cl)S1 (centres undefined) | – | > 100 | – | > 100 | – | > 100 | – | > 100 | – | > 100 | – | > 100 | – | > 100 | – | > 100 | – | – | – | –
O=Cc1ccc2c(c1I)OCO2 | – | > 100 | – | > 100 | – | > 100 | – | > 100 | – | > 100 | – | > 100 | – | > 100 | – | > 100 | > 100 | – | – | –
CC(=O)/C(=C\c1ccccc1O)C(=O)Nc1ccccc1C | – | 96.8 | – | 68.7 | – | 53.7 | – | – | – | 79 | – | 40.9 | – | 45.3 | – | 37.2 | – | – | – | 37.5
Fc1ccc(/C=N/n2c(-c3ccc(F)c(Cl)c3)n[nH]c2=S)cc1 | 32.3 | > 100 | 22.8 | 49 | 30.2 | > 100 | 37.3 | > 100 | 20.6 | 48.8 | – | – | – | – | 18.8 | 38.2 | 52.2 | 23.3 | 21.2 | 39.9
c1cc(-c2cn3c(n2)SCC3)ccn1 | – | > 100 | – | > 100 | – | > 57.7 | – | > 100 | – | > 100 | – | > 100 | – | > 59 | – | > 100 | > 100 | – | – | –
ClC1=C(Cl)C(Cl)(Cl)c2c3c(c4c(c21)C(Cl)(Cl)C(Cl)=C4Cl)C(Cl)(Cl)C(Cl)=C3Cl | – | > 100 | – | – | – | > 100 | – | > 100 | – | > 100 | – | > 100 | – | > 100 | – | > 100 | > 100 | – | – | –
CC1=C(CC2C(=O)N(c3ccccc3)S(=O)(=O)NC2C)C(=O)N(c2ccccc2)S(=O)(=O)N1C (centres undefined) | – | > 100 | – | > 100 | – | > 100 | – | > 100 | – | > 100 | – | > 100 | – | > 100 | – | > 100 | > 100 | – | – | –
COc1ccc(OC(=O)CC2Cc3cc(OC)c(OC)c(OC)c3-c3ccc(SC)c(=O)cc32)cc1 (centres undefined) | – | > 100 | – | 21 | – | > 39.7 | – | > 100 | – | > 100 | – | > 57.7 | – | > 37.7 | – | 14.9 | 0.527 | – | – | –
N#CCN1C(=O)c2cc([N+](=O)[O-])cc3cc([N+](=O)[O-])cc(c23)C1=O | – | 55.8 | – | 29.2 | – | 20.3 | – | 36.6 | – | 18.3 | – | 26.3 | – | 20.3 | – | 32.9 | – | – | – | 21.3
CC(C)(C)c1cc2nc(c1)C(C(F)(F)F)(C(F)(F)F)OB(Br)OC2(C(F)(F)F)C(F)(F)F | – | 0.727 | – | 0.983 | – | 15.8 | – | 0.364 | – | 8.83 | – | – | – | 13.8 | – | 17.2 | – | – | – | 22
COc1cc(C2(C)SCCCS2)cc(OC)c1OC | – | > 100 | – | > 100 | – | > 100 | – | > 100 | – | > 100 | – | > 100 | – | > 100 | – | > 100 | > 100 | – | – | –
